From US8748418B2, “1,4-oxazepines as BACE1 and/or BACE2 inhibitors” (Hoffmann-La Roche Inc., priority 2011, dated 2014)
pIC50: −log10 of the molar value.

Tests used:
BACE1 = BACE1 (Homo sapiens (Human), UniProt P56817); test: Cellular Aβ-lowering assay (Aβ40 ELISA in HEK293 cells expressing human APP695); format: cell-based; conditions: HEK293 cells stably transfected with human APP wt (APP695), Aβ40 in supernatant after 18-20 hrs
Protocol: Cellular Aβ-Lowering Assay:
Human HEK293 cells which are stably transfected with a vector expressing a cDNA of the human APP wt gene (APP695) were used to assess the potency of the compounds in a cellular assay. The cells were seeded in 96-well microtiter plates in cell culture medium (Iscove, plus 10% (v/v) fetal bovine serum, glutamine, penicillin/streptomycin) to about 80% confluence and the compounds were added at a 10× concentration in 1/10 volume of medium without FCS containing 8% DMSO (final concentration of DMSO was kept at 0.8% v/v). After 18-20 hrs incubation at 37° C. and 5% CO2 in a humidified incubator the culture supernatant was harvested for the determination of Aβ40 concentrations. 96 well ELISA plates (e.g., Nunc MaxiSorb) were coated with monoclonal antibody which specifically recognize the C-terminal end of Aβ40 (Brockhaus et al., NeuroReport 9, 1481-1486; 1998). After blocking of non-specific binding sites with e.g. 1% BSA and washing, the culture supernatants were added in suitable dilutions together with a horseradish peroxidase-coupled Aβ detection antibody (e.g., antibody 4G8, Senetek, Maryland Heights, Mo.) and incubated for 5 to 7 hrs. Subsequently the wells of the microtiter plate were washed extensively with Tris-buffered saline containing 0.05% Tween 20 and the assay was developed with tetramethylbenzidine/H2O2 in citric acid buffer. After stopping the reaction with one volume 1NH2SO4 the reaction was measured in an ELISA reader at 450 nm wavelength. The concentrations of Aβ in the culture supernatants were calculated from a standard curve obtained with known amounts of pure Aβ peptide.

BACE2 = BACE2 (Homo sapiens (Human), UniProt Q9Y5Z0); test: Immunofluorescence Resonance Energy Transfer (FRET) assay for BACE2 inhibition; format: biochemical; conditions: TMEM27-based peptide substrate 5 μM, pH 4.5
Protocol: Immunofluorescence Resonance Energy Transfer (FRET) Assay for BACE2 Inhibition:
BACE2 enzyme ectodomain (derived from plasmid “pET17b-T7-hu proBACE2”) was prepared as described in Ostermann et al., “Crystal Structure of Human BACE2 in Complex with a Hydroxyethylamine Transition-state Inhibitor”, Journal of Molecular Biology 2006, 355, 249-261. The pro-enzyme was stored at 4° C. at a concentration of 70 μg/ml.
The FRET assay was performed essentially as described in Grüninger-Leitch et al., Journal of Biological Chemistry (2002) 277(7) 4687-93 (“Substrate and inhibitor profile of BACE (beta-secretase) and comparison with other mammalian aspartic proteases”). In summary, a peptide is designed that is cleaved by the protease. The peptide is labelled with dabcyl at the N terminus and Lucifer Yellow at the C-terminus, such that for an intact peptide the Lucifer Yellow fluorescence is quenched by the dabcyl. When the peptide is cut by BACE2, the quenching is removed and a fluorescent signal is generated.
The assay was performed as described in Grueninger et al. 2002 at pH 4.5 using a substrate concentration of 5 μM. A FRET peptide based on the TMEM27 sequence was devised. dabcyl-[…]-LucY (SEQ ID NO: 1).
The assay readout is the initial rate of change of fluorescence intensity giving a relative measure of BACE2 activity. Small values correspond to high inhibition and larger values to low inhibition. […] IC50 values were determined using these assay values generated for a range of inhibitor concentrations and the curve fitting software XLfit (IDBS) using the Sigmoidal Dose-Response Model.

Chain of BACE2 (Q9Y5Z0 63-473): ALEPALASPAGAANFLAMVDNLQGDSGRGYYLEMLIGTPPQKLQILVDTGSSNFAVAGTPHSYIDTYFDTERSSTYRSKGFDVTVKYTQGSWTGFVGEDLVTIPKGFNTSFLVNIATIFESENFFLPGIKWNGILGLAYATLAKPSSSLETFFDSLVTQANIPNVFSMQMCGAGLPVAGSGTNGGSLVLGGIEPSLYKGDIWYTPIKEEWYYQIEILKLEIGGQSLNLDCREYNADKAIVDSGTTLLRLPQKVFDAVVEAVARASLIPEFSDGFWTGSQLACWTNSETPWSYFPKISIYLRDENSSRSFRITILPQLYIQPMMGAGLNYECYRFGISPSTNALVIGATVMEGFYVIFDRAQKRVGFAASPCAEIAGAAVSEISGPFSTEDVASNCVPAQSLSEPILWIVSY
Chain of BACE1 (P56817 46-501): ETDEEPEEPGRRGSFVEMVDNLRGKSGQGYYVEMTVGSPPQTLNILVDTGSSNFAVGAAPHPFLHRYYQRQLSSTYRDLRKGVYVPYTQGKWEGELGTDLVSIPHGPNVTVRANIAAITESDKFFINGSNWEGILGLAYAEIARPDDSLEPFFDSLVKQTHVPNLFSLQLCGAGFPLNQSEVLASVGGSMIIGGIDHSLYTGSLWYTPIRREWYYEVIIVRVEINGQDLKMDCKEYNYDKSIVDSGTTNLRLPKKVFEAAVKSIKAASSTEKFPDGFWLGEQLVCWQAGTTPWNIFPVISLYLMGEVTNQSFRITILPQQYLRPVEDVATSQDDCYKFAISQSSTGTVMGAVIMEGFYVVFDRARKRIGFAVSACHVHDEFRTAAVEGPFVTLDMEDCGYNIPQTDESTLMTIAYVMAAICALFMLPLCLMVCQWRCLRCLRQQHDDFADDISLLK

pIC50 (BACE1)	pIC50 (BACE2)	SMILES
6.92	8.30	CC1(C)OCC(N)=N[C@](C)(c2cc(N[C@H]3CCc4cc(C#N)cnc43)ccc2F)C1(F)F [Example 12, (S)-7-[3-((R)-3-Amino-6,6-difluoro-5,7,7-trimethyl-2,5,6,7-tetrahydro-[1,4]oxazepin-5-yl)-4-fluoro-phenylamino]-6,7-dihydro-5H-[1]pyrindine-3-carbonitrile]
6.51	7.02	CC1(C)OCC(N)=N[C@](C)(c2cc(N[C@@H]3CCc4cc(C#N)cnc43)ccc2F)C1(F)F [Example 13, (R)-7-[3-((R)-3-Amino-6,6-difluoro-5,7,7-trimethyl-2,5,6,7-tetrahydro-[1,4]oxazepin-5-yl)-4-fluoro-phenylamino]-6,7-dihydro-5H-[1]pyrindine-3-carbonitrile]
7.15	7.55	CC1(C)OCC(N)=N[C@](C)(c2cc(NC3CCc4cc(Cl)cnc43)ccc2F)C1(F)F (stereo partly drawn) [Example 14, [3-((R)-3-Amino-6,6-difluoro-5,7,7-trimethyl-2,5,6,7-tetrahydro-[1,4]oxazepin-5-yl)-4-fluoro-phenyl]-(3-chloro-6,7-dihydro-5H-[1]pyrindin-7-yl)-amine]
5.96	6.03	CC1(C)OCC(N)=N[C@](C)(c2cc(Nc3cccnc3)ccc2F)C1(F)F [Example 24, (R)-6,6-Difluoro-5-[2-fluoro-5-(pyridin-3-ylamino)-phenyl]-5,7,7-trimethyl-2,5,6,7-tetrahydro-[1,4]oxazepin-3-ylamine]
6.39	5.79	COc1ccc(Nc2ccc(F)c([C@@]3(C)N=C(N)COC(C)(C)C3(F)F)c2)cn1 [Example 25, (R)-6,6-Difluoro-5-[2-fluoro-5-(6-methoxy-pyridin-3-ylamino)-phenyl]-5,7,7-trimethyl-2,5,6,7-tetrahydro-[1,4]oxazepin-3-ylamine]
6.36	5.87	CC1(C)OCC(N)=N[C@](C)(c2cc(Nc3cncc(F)c3)ccc2F)C1(F)F [Example 23, (R)-6,6-Difluoro-5-[2-fluoro-5-(5-fluoro-pyridin-3-ylamino)-phenyl]-5,7,7-trimethyl-2,5,6,7-tetrahydro-[1,4]oxazepin-3-ylamine]
6.49	6.40	CC1(C)OCC(N)=N[C@](C)(c2cc(NC3COc4cc(Cl)ccc43)ccc2F)C1(F)F (stereo partly drawn) [Example 17, (R)-5-[5-(6-Chloro-2,3-dihydro-benzofuran-3-ylamino)-2-fluoro-phenyl]-6,6-difluoro-5,7,7-trimethyl-2,5,6,7-tetrahydro-[1,4]oxazepin-3-ylamine]
5.23	–	Cc1ccc(Nc2ccc(F)c([C@@]3(C)N=C(N)COC(C)(C)C3(F)F)c2)cn1 [Example 27, (R)-6,6-Difluoro-5-[2-fluoro-5-(6-methyl-pyridin-3-ylamino)-phenyl]-5,7,7-trimethyl-2,5,6,7-tetrahydro-[1,4]oxazepin-3-ylamine]
6.43	5.75	CC1(C)OCC(N)=N[C@](C)(c2cc(Nc3ccc(Cl)nc3)ccc2F)C1(F)F [Example 22, (R)-5-[5-(6-Chloro-pyridin-3-ylamino)-2-fluoro-phenyl]-6,6-difluoro-5,7,7-trimethyl-2,5,6,7-tetrahydro-[1,4]oxazepin-3-ylamine]
5.68	6.19	C[C@]1(c2cc(N[C@@H]3CCc4cc(Cl)cnc43)ccc2F)N=C(N)COCC1(F)F [Example 9, [3-((R)-3-Amino-6,6-difluoro-5-methyl-2,5,6,7-tetrahydro-[1,4]oxazepin-5-yl)-4-fluoro-phenyl]-((R)-3-chloro-6,7-dihydro-5H-[1]pyrindin-7-yl)-amine]
7.40	7.24	CC1(C)OCC(N)=N[C@](C)(c2cc(NC3COc4cc(Cl)cnc43)ccc2F)C1(F)F (stereo partly drawn) [Example 15, [3-((R)-3-Amino-6,6-difluoro-5,7,7-trimethyl-2,5,6,7-tetrahydro-[1,4]oxazepin-5-yl)-4-fluoro-phenyl]-(6-chloro-2,3-dihydro-furo[3,2-b]pyridin-3-yl)-amine]
6.92	6.88	CC1(C)OCC(N)=N[C@](C)(c2cc(NC3CCCc4cc(C#N)cnc43)ccc2F)C1(F)F (stereo partly drawn) [Example 16, 8-[3-((R)-3-Amino-6,6-difluoro-5,7,7-trimethyl-2,5,6,7-tetrahydro-[1,4]oxazepin-5-yl)-4-fluoro-phenylamino]-5,6,7,8-tetrahydro-quinoline-3-carbonitrile]
4.85	5.55	CC1(C)OCC(N)=N[C@](C)(c2cc(N[C@@H]3CCc4cc(C#N)cnc43)c(F)cc2F)C1(F)F [Example 21, (R)-7-[5-((R)-3-Amino-6,6-difluoro-5,7,7-trimethyl-2,5,6,7-tetrahydro-[1,4]oxazepin-5-yl)-2,4-difluoro-phenylamino]-6,7-dihydro-5H-[1]pyrindine-3-carbonitrile]

Second part, the molecule before the results:

SMILES	pIC50 (BACE1)	pIC50 (BACE2)
C[C@]1(c2cc(NC3CCCOC3)ccc2F)N=C(N)COC[C@@H]1F (stereo partly drawn) [Example 4, (5R,6R)-6-Fluoro-5-[2-fluoro-5-(tetrahydro-pyran-3-ylamino)-phenyl]-5-methyl-2,5,6,7-tetrahydro-[1,4]oxazepin-3-ylamine]	6.40	7.14
C[C@]1(c2cc(Nc3ccc(C#N)cc3)ccc2F)N=C(N)COCC1(F)F [Example 10, 4-[3-((R)-3-Amino-6,6-difluoro-5-methyl-2,5,6,7-tetrahydro-[1,4]oxazepin-5-yl)-4-fluoro-phenylamino]-benzonitrile]	6.15	6.04
C[C@]1(c2cc(NC3CCOCC3)ccc2F)N=C(N)COC[C@@H]1F [Example 5, (5R,6R)-6-Fluoro-5-[2-fluoro-5-(tetrahydro-pyran-4-ylamino)-phenyl]-5-methyl-2,5,6,7-tetrahydro-[1,4]oxazepin-3-ylamine]	5.62	5.83
CC[C@]1(c2cc(NCc3nn(C(F)F)cc3Cl)ccc2F)N=C(N)COCC1(F)F [Example 7, (R)-5-{5-[(4-Chloro-1-difluoromethyl-1H-pyrazol-3-ylmethyl)-amino]-2-fluoro-phenyl}-5-ethyl-6,6-difluoro-2,5,6,7-tetrahydro-[1,4]oxazepin-3-ylamine]	6.77	6.51
C[C@]1(c2cc(NC3CCOC3)ccc2F)N=C(N)COC[C@@H]1F (stereo partly drawn) [Example 3, (5R,6R)-6-Fluoro-5-[2-fluoro-5-(tetrahydro-furan-3-ylamino)-phenyl]-5-methyl-2,5,6,7-tetrahydro-[1,4]oxazepin-3-ylamine]	6.24	7.14
CC1(C)OCC(N)=N[C@](C)(c2cc(Nc3ccc(OCC(F)(F)F)nc3)ccc2F)C1(F)F [Example 28, (R)-6,6-Difluoro-5-{2-fluoro-5-[6-(2,2,2-trifluoro-ethoxy)-pyridin-3-ylamino]-phenyl}-5,7,7-trimethyl-2,5,6,7-tetrahydro-[1,4]oxazepin-3-ylamine]	4.90	5.83
C[C@]1(c2cc(NC3CCc4cc(Cl)cnc43)ccc2F)N=C(N)COC[C@@H]1F (stereo partly drawn) [Example 1, [3-((5R,6R)-3-Amino-6-fluoro-5-methyl-2,5,6,7-tetrahydro-[1,4]oxazepin-5-yl)-4-fluoro-phenyl]-(3-chloro-6,7-dihydro-5H-[1]pyrindin-7-yl)-amine]	7.15	7.62
CC1(C)OCC(N)=N[C@](C)(c2cc(Nc3ccc(F)cc3)ccc2F)C1(F)F [Example 19, (R)-6,6-Difluoro-5-[2-fluoro-5-(4-fluoro-phenylamino)-phenyl]-5,7,7-trimethyl-2,5,6,7-tetrahydro-[1,4]oxazepin-3-ylamine]	6.51	5.38
Cn1ccc(Nc2ccc(F)c([C@@]3(C)N=C(N)COC(C)(C)C3(F)F)c2)n1 [Example 18, (R)-6,6-Difluoro-5-[2-fluoro-5-(1-methyl-1H-pyrazol-3-ylamino)-phenyl]-5,7,7-trimethyl-2,5,6,7-tetrahydro-[1,4]oxazepin-3-ylamine]	6.62	6.28
